Experiments:
[1] = molecular target: Acetyl-CoA carboxylase 1 (Homo sapiens, UniProt Q13085); experiment: Inhibition of human recombinant ACC1
[2] = molecular target: Acetyl-CoA carboxylase 2 (Homo sapiens, UniProt O00763); experiment: Inhibition of human recombinant ACC2
Sequence of Acetyl-CoA carboxylase 2 (O00763 whole entry): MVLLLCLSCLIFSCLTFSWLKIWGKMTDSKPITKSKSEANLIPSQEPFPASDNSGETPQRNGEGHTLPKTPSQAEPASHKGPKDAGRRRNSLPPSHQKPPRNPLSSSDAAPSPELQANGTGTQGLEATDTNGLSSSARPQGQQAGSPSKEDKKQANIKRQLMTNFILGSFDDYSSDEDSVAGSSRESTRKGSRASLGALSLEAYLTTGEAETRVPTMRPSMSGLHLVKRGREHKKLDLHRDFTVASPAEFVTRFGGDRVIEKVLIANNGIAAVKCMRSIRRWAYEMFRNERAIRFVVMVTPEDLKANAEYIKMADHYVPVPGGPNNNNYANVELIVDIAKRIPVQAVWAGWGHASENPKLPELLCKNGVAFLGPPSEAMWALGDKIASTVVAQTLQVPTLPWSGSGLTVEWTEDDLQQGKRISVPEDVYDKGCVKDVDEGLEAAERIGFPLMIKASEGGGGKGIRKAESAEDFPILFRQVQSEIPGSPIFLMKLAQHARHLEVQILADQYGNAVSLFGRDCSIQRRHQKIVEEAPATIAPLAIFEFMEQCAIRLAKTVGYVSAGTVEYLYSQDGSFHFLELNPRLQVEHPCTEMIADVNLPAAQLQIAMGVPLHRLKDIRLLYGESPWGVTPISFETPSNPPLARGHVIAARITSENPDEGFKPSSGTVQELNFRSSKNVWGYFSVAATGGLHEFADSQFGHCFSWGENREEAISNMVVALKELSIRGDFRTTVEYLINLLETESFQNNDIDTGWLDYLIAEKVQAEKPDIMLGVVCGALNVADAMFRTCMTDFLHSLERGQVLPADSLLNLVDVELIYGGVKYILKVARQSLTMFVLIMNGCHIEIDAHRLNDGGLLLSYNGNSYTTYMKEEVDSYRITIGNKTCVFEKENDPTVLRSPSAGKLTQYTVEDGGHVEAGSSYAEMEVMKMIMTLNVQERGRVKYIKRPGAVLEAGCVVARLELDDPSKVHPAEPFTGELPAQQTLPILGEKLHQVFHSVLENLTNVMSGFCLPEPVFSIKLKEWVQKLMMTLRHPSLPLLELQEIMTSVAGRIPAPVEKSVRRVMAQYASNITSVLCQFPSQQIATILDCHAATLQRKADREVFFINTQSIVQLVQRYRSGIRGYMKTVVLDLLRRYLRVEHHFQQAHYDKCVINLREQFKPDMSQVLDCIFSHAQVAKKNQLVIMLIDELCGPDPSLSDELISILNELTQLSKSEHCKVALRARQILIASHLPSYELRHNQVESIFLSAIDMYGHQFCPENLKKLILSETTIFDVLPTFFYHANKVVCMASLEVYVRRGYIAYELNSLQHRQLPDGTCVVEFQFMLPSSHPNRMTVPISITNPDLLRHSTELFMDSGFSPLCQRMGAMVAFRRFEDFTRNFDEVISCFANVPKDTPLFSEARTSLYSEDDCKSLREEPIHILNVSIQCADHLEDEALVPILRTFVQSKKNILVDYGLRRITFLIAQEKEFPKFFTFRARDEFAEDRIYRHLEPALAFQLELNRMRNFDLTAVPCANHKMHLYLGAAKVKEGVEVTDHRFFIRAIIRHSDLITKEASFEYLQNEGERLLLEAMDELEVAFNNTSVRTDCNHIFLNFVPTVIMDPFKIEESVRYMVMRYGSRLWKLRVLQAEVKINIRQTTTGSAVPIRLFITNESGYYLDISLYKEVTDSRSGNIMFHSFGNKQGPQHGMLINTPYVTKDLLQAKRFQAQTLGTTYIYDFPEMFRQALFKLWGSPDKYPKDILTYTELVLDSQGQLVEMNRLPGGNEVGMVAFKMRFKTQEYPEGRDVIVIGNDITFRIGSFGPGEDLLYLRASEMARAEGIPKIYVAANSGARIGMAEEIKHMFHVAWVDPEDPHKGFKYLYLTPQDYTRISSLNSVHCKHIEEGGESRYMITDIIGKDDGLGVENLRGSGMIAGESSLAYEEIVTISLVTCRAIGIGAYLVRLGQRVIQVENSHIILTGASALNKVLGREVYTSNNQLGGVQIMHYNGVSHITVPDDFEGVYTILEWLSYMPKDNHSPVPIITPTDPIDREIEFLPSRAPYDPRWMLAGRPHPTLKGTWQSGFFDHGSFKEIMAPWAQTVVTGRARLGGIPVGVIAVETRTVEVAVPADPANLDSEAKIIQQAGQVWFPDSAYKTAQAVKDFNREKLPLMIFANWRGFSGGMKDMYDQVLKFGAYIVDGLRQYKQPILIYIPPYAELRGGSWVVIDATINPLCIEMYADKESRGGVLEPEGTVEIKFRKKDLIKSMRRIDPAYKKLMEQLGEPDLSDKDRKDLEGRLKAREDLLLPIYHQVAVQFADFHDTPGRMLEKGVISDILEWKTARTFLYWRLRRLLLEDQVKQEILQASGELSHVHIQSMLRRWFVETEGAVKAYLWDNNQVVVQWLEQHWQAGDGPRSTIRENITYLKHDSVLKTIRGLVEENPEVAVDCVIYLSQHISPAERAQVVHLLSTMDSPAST

Row | SMILES | IC50 [1] | IC50 [2]
1 | CNc1ccc2ccc(C(=O)N3CCC4(CC3)CC(=O)c3nn(C(C)(C)C)cc3C4)cc2n1 | 2.2 nM | 1.3 nM
2 | CC(C)n1ncc2c1C(=O)CC1(CCN(C(=O)c3ccc4ccc(N)nc4c3)CC1)C2 | 12 nM | 10 nM
3 | COc1ccc2ncc(C(=O)N3CCC4(CC3)CC(=O)c3c(cnn3C(C)C)C4)cc2c1 | 5 nM | 2.1 nM
4 | CC(C)n1ncc2c1C(=O)CC1(CCN(C(=O)c3ccc4[nH]c(C(N)=O)cc4c3)CC1)C2 | 11 nM | 2.9 nM

From ChEMBL document CHEMBL2321665, “Treatment of Obesity and Related Disorders with Acetyl-CoA Carboxylase Inhibitors” (ACS Med Chem Lett, 2013)
